In patent US9387203B2, “Substituted aminoindane- and aminotetralinecarboxylic acids and the use thereof” (BAYER PHARMA AKTIENGESELLSCHAFT, priority 2012, dated 2016):
Values belong to the molecule of their own block, whether it stands above or below them.

Legend:
[1] = tested on: recombinant guanylate cyclase reporter cell line (CHO); assay: Effect on a recombinant guanylate cyclase reporter cell line (sGC-activating activity in the CHO reporter cell); type: cell-based
Description: B-1. Effect on a Recombinant Guanylate Cyclase Reporter Cell Line
The cellular activity of the compounds according to the invention is determined using a recombinant guanylate cyclase reporter cell line, as described in F. Wunder et al., Anal. Biochem. 339, 104-112 (2005).

[2] = molecular target: T1, soluble guanylate cyclase (sGC) (Rattus norvegicus, UniProt P20595); assay: Stimulation of sGC enzyme activity (PPi detection, luciferase); type: biochemical; conditions: for EC50: sGC enzyme in vitro, read-out: EC50 (half-maximal effective concentration), activating action at the sGC enzyme in vitro
T1 construct: made in house
T1 sequence (P20595 1-619): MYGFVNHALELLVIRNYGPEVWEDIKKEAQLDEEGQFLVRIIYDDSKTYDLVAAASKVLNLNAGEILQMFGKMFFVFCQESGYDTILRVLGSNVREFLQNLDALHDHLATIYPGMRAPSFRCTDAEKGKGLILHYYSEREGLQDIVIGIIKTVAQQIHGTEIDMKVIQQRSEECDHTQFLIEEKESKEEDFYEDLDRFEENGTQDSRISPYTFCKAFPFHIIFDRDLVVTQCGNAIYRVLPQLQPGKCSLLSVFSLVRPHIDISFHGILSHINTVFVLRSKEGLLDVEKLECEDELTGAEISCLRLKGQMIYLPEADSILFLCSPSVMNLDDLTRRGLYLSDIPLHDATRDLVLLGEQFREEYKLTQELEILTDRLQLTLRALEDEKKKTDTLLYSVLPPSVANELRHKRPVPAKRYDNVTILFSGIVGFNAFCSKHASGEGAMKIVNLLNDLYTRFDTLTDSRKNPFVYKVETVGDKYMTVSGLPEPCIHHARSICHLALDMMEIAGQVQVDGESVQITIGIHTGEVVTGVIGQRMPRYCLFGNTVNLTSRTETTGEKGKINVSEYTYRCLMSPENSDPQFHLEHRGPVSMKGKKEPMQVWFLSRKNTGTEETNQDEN
T1 sequence (P19686 1-690 partner): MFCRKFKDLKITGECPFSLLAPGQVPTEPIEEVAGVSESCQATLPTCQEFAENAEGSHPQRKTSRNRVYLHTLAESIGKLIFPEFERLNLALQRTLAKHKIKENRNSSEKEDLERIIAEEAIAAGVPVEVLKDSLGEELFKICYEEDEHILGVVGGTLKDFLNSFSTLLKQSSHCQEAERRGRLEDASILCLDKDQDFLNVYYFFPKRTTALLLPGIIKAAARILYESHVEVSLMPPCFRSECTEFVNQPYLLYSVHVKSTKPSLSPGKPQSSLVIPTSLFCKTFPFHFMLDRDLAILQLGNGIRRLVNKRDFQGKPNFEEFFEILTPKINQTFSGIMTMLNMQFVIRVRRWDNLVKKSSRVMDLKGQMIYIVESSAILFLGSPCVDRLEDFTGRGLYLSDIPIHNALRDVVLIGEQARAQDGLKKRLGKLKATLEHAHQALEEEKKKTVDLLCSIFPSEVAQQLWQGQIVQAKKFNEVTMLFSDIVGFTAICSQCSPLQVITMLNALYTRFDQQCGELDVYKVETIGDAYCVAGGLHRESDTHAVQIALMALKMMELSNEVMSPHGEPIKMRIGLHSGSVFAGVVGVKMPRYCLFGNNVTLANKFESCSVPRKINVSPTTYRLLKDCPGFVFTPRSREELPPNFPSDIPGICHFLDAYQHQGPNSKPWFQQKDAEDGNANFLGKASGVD
Description: B-2. Stimulation of sGC Enzyme Activity
Soluble guanylate cyclase (sGC) converts on stimulation GTP into cGMP and pyrophosphate (PPi). PPi is detected with the aid of the assay described below. The signal produced in the assay increases as the reaction progresses and serves as a measure of the sGC enzyme activity under the given stimulation.
To carry out the assay, 29 μl of enzyme solution[0-10 nM soluble guanylate cyclase (prepared according to Honicka et al., J. Mol. Med. 77, 14-23 (1999)) in 50 mM TEA, 2 mM MgCl2, 0.1% BSA (fraction V), 0.005% Brij®, pH 7.5] are initially introduced into a microplate, and 1 μl of the substance to be tested (as a serially diluted solution in DMSO) is added. The mixture is incubated at room temperature for 10 min. Then 20 μl of detection mix [1.2 nM Firefly Luciferase (Photinus pyralis luciferase, Promega), 29 μM dehydroluciferin (prepared according to Bitler & McElroy, Arch. Biochem. Biophys. 72, 358 (1957)), 122 μM luciferin (Promega), 153 μM ATP (Sigma) and 0.4 mM DTT (Sigma) in 50 mM TEA, 2 mM MgCl2, 0.1% BSA (fraction V), 0.005% Brij®, pH 7.5] are added. The enzyme reaction is started by adding 20 μl of substrate solution[1.25 mM guanosine 5′-triphosphate (Sigma) in 50 mM TEA, 2 mM MgCl2, 0.1% BSA (fraction V), 0.005% Brij®, pH 7.5] and measured continuously in a luminometer. The extent of the stimulation by the substance to be tested can be determined relative to the signal of the unstimulated reaction.
The activation of haem-free guanylate cyclase is examined by addition of 25 μM of 1H-1,2,4-oxadiazolo[4,3-a]quinoxalin-1-one (ODQ) to the enzyme solution and subsequent incubation for 30 minutes and compared to the stimulation of the native enzyme.

[3] = tested on: rabbit arteria saphena rings; assay: Vasorelaxant effect in vitro (arteria saphena rings, phenylephrin contraction); parameters: species or system Rabbits; conditions: concentration reducing phenylephrin-induced contraction by 50%
Description: B-3. Vasorelaxant Effect In Vitro
Rabbits are anaesthetized by intravenous injection of thiopental sodium […] (about 50 mg/kg) and exsanguinated. The arteria saphena is removed and divided into 3 mm wide rings. The rings are individually mounted on in each case one triangular pair of hooks, open at the end, made of 0.3 mm strong special wire (Remanium®). Under pretension, each ring is transferred into 5 ml organ baths containing carbogen-gassed Krebs-Henseleit solution of a temperature of 37° C. having the following composition: NaCl 119 mM; KCl 4.8 mM; CaCl2×2 H2O 1 mM; MgSO4×7 H2O 1.4 mM; KH2PO4 1.2 mM; NaHCO3 25 mM; glucose 10 mM; bovine serum albumin 0.001%. The contractile force is determined with Statham UC2 cells, amplified and digitalized using A/D transducers (DAS-1802 HC, Keithley Instruments Munich), and recorded in parallel on linear recorders. Contractions are induced by addition of phenylephrin.
After several (in general 4) control cycles, the substance to be investigated is added in each further passage in increasing dosage, and the height of the contraction achieved under the influence of the test substance is compared with the height of the contraction achieved in the last preliminary passage. From this, the concentration which is necessary in order to reduce the contraction achieved in the preliminary control by 50% (IC50) is calculated. The standard administration volume is 5 μl. The proportion of DMSO in the bath solution corresponds to 0.1%.

MEC (minimum effective concentration), activating action at the sGC enzyme in vitro [2]: 600 nM
Structure (SMILES): O=C(O)CCCCN(CCc1ccccc1OCCCCN1CCCC1=O)C1CCCc2cc(C(=O)O)ccc21 (stereo not drawn) [Example 16]

MEC (minimum effective concentration), activating action at the sGC enzyme in vitro [2]: 55 nM
Structure (SMILES): CC1CCC(=O)N1CCCCOc1ccccc1CCN(CCCCC(=O)O)C1CCCc2cc(C(=O)O)ccc21 (stereo not drawn) [Example 13]

MEC (minimum effective concentration), activating action at the sGC enzyme in vitro [2]: 610 nM
Structure (SMILES): Cc1cc(COc2ccccc2CCN(CCCCC(=O)O)C2CCCc3cc(C(=O)O)ccc32)n(C)n1 (stereo not drawn) [Example 11]

MEC (minimum effective concentration), activating action at the sGC enzyme in vitro [2]: 270 nM
Structure (SMILES): N#Cc1cccc(COc2ccccc2CCN(CCCCC(=O)O)C2CCCc3cc(C(=O)O)ccc32)c1 (stereo not drawn) [Example 10]
MEC (minimum effective concentration), sGC-activating activity in the CHO reporter cell in vitro [1]: 1000 nM

More lines, now with the values behind:

Structure (SMILES): O=C(O)CCCCN(CCc1ccccc1OCc1ccc(CCc2ccccc2)cc1)C1CCCc2cc(C(=O)O)ccc21 (stereo not drawn) [Example 8]
MEC (minimum effective concentration), sGC-activating activity in the CHO reporter cell in vitro [1]: 0.3 nM | MEC (minimum effective concentration), activating action at the sGC enzyme in vitro [2]: 0.32 nM | EC50 [2]: 7.2 nM

Structure (SMILES): CC(C)(C)c1ccc(COc2ccccc2CCN(CCCCC(=O)O)C2CCCc3cc(C(=O)O)ccc32)cc1 (racemic) [Example 1, rac-5-[(2-{2[(4-tert-Butylbenzyl)oxy]phenyl}ethyl)(4-carboxybutyl)amino]-5,6,7,8-tetrahydronaphthalene-2-carboxylic acid]
MEC (minimum effective concentration), sGC-activating activity in the CHO reporter cell in vitro [1]: 0.3 nM | MEC (minimum effective concentration), activating action at the sGC enzyme in vitro [2]: 0.34 nM | EC50 [2]: 3 nM | IC50 ([3]; Oryctolagus cuniculus): 6 nM

Structure (SMILES): CC(C)(C)c1ccc(COc2ccccc2CCN(CCCCC(=O)O)C2CCc3cc(C(=O)O)ccc32)cc1 (stereo not drawn) [Example 4]
MEC (minimum effective concentration), sGC-activating activity in the CHO reporter cell in vitro [1]: 3.0 nM | MEC (minimum effective concentration), activating action at the sGC enzyme in vitro [2]: 0.21 nM | EC50 [2]: 4.5 nM | IC50 ([3]; Oryctolagus cuniculus): 31 nM

Structure (SMILES): CC(C)(C)c1ccc(COc2ccccc2CCN(CCCCC(=O)O)C2CCCc3cc(C(=O)O)ccc32)cc1 (single isomer, unassigned; enantiomer 1) [Example 2, 5-[(2-{2-[(4-tert-Butylbenzyl)oxy]phenyl}ethyl)(4-carboxybutyl)amino]-5,6,7,8-tetrahydronaphthalene-2-carboxylic acid (enantiomer 1)]
MEC (minimum effective concentration), sGC-activating activity in the CHO reporter cell in vitro [1]: 0.2 nM | MEC (minimum effective concentration), activating action at the sGC enzyme in vitro [2]: 0.11 nM | EC50 [2]: 2.5 nM | IC50 [3]: 3.8 nM

Structure (SMILES): CC(C)(C)c1ccc(COc2ccccc2CCN(CCCCC(=O)O)C2CCCc3cc(C(=O)O)ccc32)cc1 (single isomer, unassigned; enantiomer 2) [Example 3, 5-[(2-{2-[(4-tert-Butylbenzyl)oxy]phenyl}ethyl)(4-carboxybutyl)amino]-5,6,7,8-tetrahydronaphthalene-2-carboxylic acid (enantiomer 2)]
MEC (minimum effective concentration), sGC-activating activity in the CHO reporter cell in vitro [1]: 0.65 nM | MEC (minimum effective concentration), activating action at the sGC enzyme in vitro [2]: 5 nM | EC50 [2]: 43 nM | IC50 [3]: 58 nM
